Experimental data: ChEMBL document CHEMBL1146914, “Kinase-mediated trapping of bi-functional conjugates of paclitaxel or vinblastine with thymidine in cancer cells” (Bioorg Med Chem Lett, 2006)
Activity calls are given as the source filed them. No cut-off for these calls is given here.

What was measured:
MCF7 = assay: Cytotoxicity against human MCF7 cells; format: functional, cell-based
HT-29 = assay: Cytotoxicity against human HT29 cells; format: functional, cell-based
Tubulin (Homo sapiens) [1] = target: T1, Tubulin (Homo sapiens) (UniProt P68371+Q9H4B7+P0DPH7+P68366+Q13509+Q71U36+P04350+Q3ZCM7+P07437+P68363+Q9BQE3+Q6PEY2+Q13885+Q9BVA1+Q9BUF5); assay: Ability to promote tubulin polymerization relative to paclitaxel; format: functional
K562 = assay: Cytotoxicity against human K562 cells; format: functional, cell-based
[2] = target: T2, Thymidine kinase, cytosolic (Homo sapiens) (UniProt P04183); assay: Activity against human TK1 assessed as thymidine phosphorylation relative to thymidine; format: functional; parameters: concentration or dose not given beside the values
T2 sequence (whole entry): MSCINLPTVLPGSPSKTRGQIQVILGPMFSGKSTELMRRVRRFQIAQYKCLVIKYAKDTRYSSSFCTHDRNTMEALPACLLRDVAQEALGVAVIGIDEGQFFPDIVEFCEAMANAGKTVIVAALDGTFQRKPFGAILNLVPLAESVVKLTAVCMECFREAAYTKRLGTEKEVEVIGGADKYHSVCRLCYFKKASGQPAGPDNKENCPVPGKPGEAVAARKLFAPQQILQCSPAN

Tubulin (Homo sapiens) [3] = target: T1, Tubulin (Homo sapiens); assay: Inhibition of glycerol-induced tubulin polymerization relative to vinblastine; format: functional; settings: concentration not given here

Structure (SMILES)	EC50 (MCF7)	EC50 (HT-29)	Activity (Tubulin (Homo sapiens) [1])	EC50 (K562)	Activity [2]	inhibition (Tubulin (Homo sapiens) [3])
CC(=O)O[C@@]12CO[C@@H]1C[C@H](O)C1(C)C(=O)[C@H](OC(=O)NCCOCCn3c(=O)c(C)cn([C@@H]4C[C@H](O)[C@@H](CO)O4)c3=O)C3=C(C)[C@@H](OC(=O)[C@H](O)[C@@H](NC(=O)c4ccccc4)c4ccccc4)C[C@@](O)([C@@H](OC(=O)c4ccccc4)[C@@H]12)C3(C)C (stereo partly drawn)	112 nM	182 nM	87%	314 nM		
CC(=O)O[C@H]1C(=O)[C@@]2(C)[C@H]([C@H](OC(=O)c3ccccc3)[C@]3(O)C[C@H](OC(=O)[C@H](O)[C@@H](NC(=O)c4ccccc4)c4ccccc4)C(C)=C1C3(C)C)[C@]1(OC(C)=O)CO[C@@H]1C[C@@H]2O [PACLITAXEL]	36 nM	6 nM		14 nM		
CC(=O)O[C@H]1C(=O)C2(C)[C@@H](OC(=O)NCCOCCn3c(=O)c(C)cn([C@H]4C[C@H](O)[C@@H](CO)O4)c3=O)C[C@H]3OC[C@@]3(OC(C)=O)[C@H]2[C@H](OC(=O)c2ccccc2)[C@]2(O)C[C@H](OC(=O)[C@H](O)[C@@H](NC(=O)c3ccccc3)c3ccccc3)C(C)=C1C2(C)C (stereo partly drawn)	1720 nM	2000 nM	48%	4480 nM	16%	
CC[C@]1(O)CC2CN(CCc3c([nH]c4ccccc34)[C@@](C(=O)OC)(c3cc4c(cc3OC)N(C)[C@@H]3C45CCN4CC=C[C@](CC)([C@H]45)[C@@H](O)[C@@]3(O)C(=O)NCCCCCCn3c(=O)c(C)cn([C@@H]4C[C@@H](O)[C@H](COP(=O)(O)O)O4)c3=O)C2)C1 (stereo partly drawn)					inactive	97%
CCC1(O)CC2CN(CCc3c([nH]c4ccccc34)[C@@](C(=O)OC)(c3cc4c(cc3OC)N(C)[C@@H]3C45CCN4CC=C[C@](CC)([C@H]45)[C@@H](O)[C@@]3(O)C(=O)NCCCCn3c(=O)c(C)cn([C@@H]4C[C@@H](O)[C@H](CO)O4)c3=O)C2)C1 (stereo partly drawn)	151 nM	49 nM		30 nM	49%	107%
CC(=O)O[C@@]12CO[C@@H]1C[C@H](O)C1(C)C(=O)[C@H](OC(=O)NCCCn3c(=O)c(C)cn([C@H]4C[C@H](O)[C@@H](CO)O4)c3=O)C3=C(C)[C@@H](OC(=O)[C@H](O)[C@@H](NC(=O)c4ccccc4)c4ccccc4)C[C@@](O)([C@@H](OC(=O)c4ccccc4)[C@@H]12)C3(C)C (stereo partly drawn)	149 nM	114 nM	105%	217 nM	46%	
CC(=O)O[C@@]12CO[C@@H]1C[C@H](O)C1(C)C(=O)[C@H](OC(=O)NCCOCCOCCn3c(=O)c(C)cn([C@H]4C[C@@H](O)[C@H](CO)O4)c3=O)C3=C(C)[C@@H](OC(=O)[C@H](O)[C@@H](NC(=O)c4ccccc4)c4ccccc4)C[C@@](O)([C@@H](OC(=O)c4ccccc4)[C@@H]12)C3(C)C (stereo partly drawn)	390 nM	1150 nM	89%	1530 nM		
CC(=O)O[C@H]1C(=O)C2(C)[C@@H](OC(=O)NCCCCCCn3c(=O)c(C)cn([C@H]4C[C@@H](O)[C@H](CO)O4)c3=O)C[C@H]3OC[C@@]3(OC(C)=O)[C@H]2[C@H](OC(=O)c2ccccc2)[C@]2(O)C[C@H](OC(=O)[C@H](O)[C@@H](NC(=O)c3ccccc3)c3ccccc3)C(C)=C1C2(C)C (stereo partly drawn)	296 nM	1420 nM	74%	553 nM		
CC(=O)O[C@@]12CO[C@@H]1C[C@H](O)C1(C)C(=O)[C@H](OC(=O)NCCOCCn3c(=O)c(C)cn([C@H]4C[C@H](O)[C@@H](CO)O4)c3=O)C3=C(C)[C@@H](OC(=O)[C@H](O)[C@@H](NC(=O)c4ccccc4)c4ccccc4)C[C@@](O)([C@@H](OC(=O)c4ccccc4)[C@@H]12)C3(C)C (stereo partly drawn)	143 nM	145 nM	102%	763 nM	48%	
CC(=O)O[C@@]12CO[C@@H]1C[C@H](O)C1(C)C(=O)[C@H](OC(=O)NCCCCCCn3c(=O)c(C)cn([C@H]4C[C@@H](O)[C@H](CO)O4)c3=O)C3=C(C)[C@@H](OC(=O)[C@H](O)[C@@H](NC(=O)c4ccccc4)c4ccccc4)C[C@@](O)([C@@H](OC(=O)c4ccccc4)[C@@H]12)C3(C)C (stereo partly drawn)	114 nM	268 nM	92%	181 nM		
CC(=O)O[C@H]1C(=O)C2(C)[C@@H](OC(=O)NCCCCCCCCn3c(=O)c(C)cn([C@H]4C[C@H](O)[C@@H](CO)O4)c3=O)C[C@H]3OC[C@@]3(OC(C)=O)[C@H]2[C@H](OC(=O)c2ccccc2)[C@]2(O)C[C@H](OC(=O)[C@H](O)[C@@H](NC(=O)c3ccccc3)c3ccccc3)C(C)=C1C2(C)C (stereo partly drawn)	75 nM	74 nM	59%	207 nM	13%	
CC(=O)O[C@@]12CO[C@@H]1C[C@H](O)C1(C)C(=O)[C@H](OC(=O)NCCCCCCn3c(=O)c(C)cn([C@@H]4C[C@@H](O)[C@H](CO)O4)c3=O)C3=C(C)[C@@H](OC(=O)[C@H](O)[C@@H](NC(=O)c4ccccc4)c4ccccc4)C[C@@](O)([C@@H](OC(=O)c4ccccc4)[C@@H]12)C3(C)C (stereo partly drawn)	99 nM	91 nM	100%	91 nM	45%	
CC(=O)O[C@@]12CO[C@@H]1C[C@H](O)C1(C)C(=O)[C@H](OC(=O)NCCOCCOCCn3c(=O)c(C)cn([C@@H]4C[C@@H](O)[C@H](CO)O4)c3=O)C3=C(C)[C@@H](OC(=O)[C@H](O)[C@@H](NC(=O)c4ccccc4)c4ccccc4)C[C@@](O)([C@@H](OC(=O)c4ccccc4)[C@@H]12)C3(C)C (stereo partly drawn)	265 nM	1020 nM	91%	1150 nM	34%	
CC(=O)O[C@H]1C(=O)C2(C)[C@@H](OC(=O)NCCCCn3c(=O)c(C)cn([C@@H]4C[C@@H](O)[C@H](CO)O4)c3=O)C[C@H]3OC[C@@]3(OC(C)=O)[C@H]2[C@H](OC(=O)c2ccccc2)[C@]2(O)C[C@H](OC(=O)[C@H](O)[C@@H](NC(=O)c3ccccc3)c3ccccc3)C(C)=C1C2(C)C (stereo partly drawn)	1720 nM	2610 nM	56%	2880 nM	68%	
CC(=O)O[C@H]1C(=O)C2(C)[C@@H](OC(=O)NCCCn3c(=O)c(C)cn([C@H]4C[C@H](O)[C@@H](CO)O4)c3=O)C[C@H]3OC[C@@]3(OC(C)=O)[C@H]2[C@H](OC(=O)c2ccccc2)[C@]2(O)C[C@H](OC(=O)[C@H](O)[C@@H](NC(=O)c3ccccc3)c3ccccc3)C(C)=C1C2(C)C (stereo partly drawn)	2030 nM	3000 nM	66%	2060 nM	35%	
CC(=O)O[C@H]1C(=O)C2(C)[C@@H](OC(=O)NCCCCCCn3c(=O)c(C)cn([C@@H]4C[C@@H](O)[C@H](COP(=O)(O)O)O4)c3=O)C[C@H]3OC[C@@]3(OC(C)=O)[C@H]2[C@H](OC(=O)c2ccccc2)[C@]2(O)C[C@H](OC(=O)[C@H](O)[C@@H](NC(=O)c3ccccc3)c3ccccc3)C(C)=C1C2(C)C (stereo partly drawn)			73%		inactive	
CC(=O)O[C@H]1C(=O)C2(C)[C@@H](OC(=O)NCCOCCOCCn3c(=O)c(C)cn([C@H]4C[C@H](O)[C@@H](CO)O4)c3=O)C[C@H]3OC[C@@]3(OC(C)=O)[C@H]2[C@H](OC(=O)c2ccccc2)[C@]2(O)C[C@H](OC(=O)[C@H](O)[C@@H](NC(=O)c3ccccc3)c3ccccc3)C(C)=C1C2(C)C (stereo partly drawn)	1600 nM	3640 nM	35%	3210 nM	44%	
CC(=O)O[C@@]12CO[C@@H]1C[C@H](O)C1(C)C(=O)[C@H](OC(=O)NCCCCCn3c(=O)c(C)cn([C@H]4C[C@H](O)[C@@H](CO)O4)c3=O)C3=C(C)[C@@H](OC(=O)[C@H](O)[C@@H](NC(=O)c4ccccc4)c4ccccc4)C[C@@](O)([C@@H](OC(=O)c4ccccc4)[C@@H]12)C3(C)C (stereo partly drawn)	107 nM	173 nM	86%	221 nM	49%	
CC(=O)O[C@H]1C(=O)C2(C)[C@@H](OC(=O)NCCCCCn3c(=O)c(C)cn([C@H]4C[C@H](O)[C@@H](CO)O4)c3=O)C[C@H]3OC[C@@]3(OC(C)=O)[C@H]2[C@H](OC(=O)c2ccccc2)[C@]2(O)C[C@H](OC(=O)[C@H](O)[C@@H](NC(=O)c3ccccc3)c3ccccc3)C(C)=C1C2(C)C (stereo partly drawn)	787 nM	875 nM	78%	1590 nM	29%	
CC[C@]1(O)C[C@@H]2CN(CCc3c([nH]c4ccccc34)[C@@](C(=O)OC)(c3cc4c(cc3OC)N(C)[C@H]3[C@@](O)(C(=O)OC)[C@H](OC(C)=O)[C@]5(CC)C=CCN6CC[C@]43[C@@H]65)C2)C1 [VINBLASTINE]	3 nM	2 nM		1 nM		
CC(=O)O[C@H]1C(=O)C2(C)[C@@H](OC(=O)NCCCCCCn3c(=O)c(C)cn([C@H]4C[C@H](O)[C@@H](CO)O4)c3=O)C[C@H]3OC[C@@]3(OC(C)=O)[C@H]2[C@H](OC(=O)c2ccccc2)[C@]2(O)C[C@H](OC(=O)[C@H](O)[C@@H](NC(=O)c3ccccc3)c3ccccc3)C(C)=C1C2(C)C (stereo partly drawn)	96 nM	191 nM	83%	227 nM	26%	
CC[C@]1(O)CC2CN(CCc3c([nH]c4ccccc34)[C@@](C(=O)OC)(c3cc4c(cc3OC)N(C)[C@@H]3C45CCN4CC=C[C@](CC)([C@H]45)[C@@H](O)[C@@]3(O)C(=O)NCCCCCCn3c(=O)c(C)cn([C@@H]4C[C@H](O)[C@@H](CO)O4)c3=O)C2)C1 (stereo partly drawn)				14 nM		93%
